# From ChEMBL document CHEMBL4229332, “Novel multi-target azinesulfonamides of cyclic amine derivatives as potential antipsychotics with pro-social and pro-cognitive effects” (Eur J Med Chem, 2018)
# Assays:
# [1] = biological target: 5-hydroxytryptamine receptor 2A (Homo sapiens, UniProt P28223); test: biochemical; format: cell-based, CHO-K1
# [2] = biological target: 5-hydroxytryptamine receptor 6 (Homo sapiens, UniProt P50406); test: biochemical
# Description: Displacement of [3H]-LSD from human 5-HT6R expressed in HEK293 cell membranes after 1 hr at 37 degC by microbeta counting method
# [3] = biological target: T1, 5-hydroxytryptamine receptor 1A (Homo sapiens, UniProt P08908); test: biochemical
# T1 sequence (P08908 whole entry): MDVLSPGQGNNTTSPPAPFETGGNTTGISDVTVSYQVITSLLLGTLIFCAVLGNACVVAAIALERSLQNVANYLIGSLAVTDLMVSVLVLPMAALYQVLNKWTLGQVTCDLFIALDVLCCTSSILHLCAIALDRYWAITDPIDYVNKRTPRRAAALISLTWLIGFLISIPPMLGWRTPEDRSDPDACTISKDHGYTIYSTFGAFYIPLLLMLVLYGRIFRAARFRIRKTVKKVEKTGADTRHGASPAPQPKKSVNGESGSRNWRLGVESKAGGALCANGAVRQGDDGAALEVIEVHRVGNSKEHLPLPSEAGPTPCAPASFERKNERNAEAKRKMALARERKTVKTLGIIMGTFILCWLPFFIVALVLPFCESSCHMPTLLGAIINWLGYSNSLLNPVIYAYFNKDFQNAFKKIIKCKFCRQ
# Description: Displacement of [3H]-8-OH-DPAT from human 5-HT1AR expressed in HEK293 cell membranes after 1 hr by microbeta counting method
# [4] = biological target: 5-hydroxytryptamine receptor 7 (Homo sapiens, UniProt P34969); test: biochemical
# Description: Displacement of [3H]-5-CT from human 5-HT7R expressed in HEK293 cell membranes after 1 hr at 37 degC by microbeta counting method
# [5] = Drug level in Wistar rat plasma at 3 mg/kg, ip measured after 15 mins by LC-MS/MS analysis; format: ADME, organism-based
# [6] = Drug level in Wistar rat plasma at 3 mg/kg, ip measured after 30 mins by LC-MS/MS analysis; format: ADME, organism-based
# [7] = Drug level in Wistar rat plasma at 3 mg/kg, ip measured after 60 mins by LC-MS/MS analysis; format: ADME, organism-based
# [8] = Drug level in Wistar rat brain at 3 mg/kg, ip measured after 15 mins by LC-MS/MS analysis; format: ADME, organism-based; details: read-out: Drug uptake
# [9] = Drug level in Wistar rat brain at 3 mg/kg, ip measured after 30 mins by LC-MS/MS analysis; format: ADME, organism-based; details: read-out: Drug uptake
# [10] = Drug level in Wistar rat brain at 3 mg/kg, ip measured after 60 mins by LC-MS/MS analysis; format: ADME, organism-based; details: read-out: Drug uptake
# [11] = Ratio of drug level in brain to plasma in Wistar rat at 3 mg/kg, ip measured after 15 mins by LC-MS/MS analysis; format: ADME, organism-based; details: read-out: BPR
# [12] = Ratio of drug level in brain to plasma in Wistar rat at 3 mg/kg, ip measured after 30 mins by LC-MS/MS analysis; format: ADME, organism-based; details: read-out: BPR
# [13] = Ratio of drug level in brain to plasma in Wistar rat at 3 mg/kg, ip measured after 60 mins by LC-MS/MS analysis; format: ADME, organism-based; details: read-out: BPR
# Sequence of 5-hydroxytryptamine receptor 6 (P50406 whole entry): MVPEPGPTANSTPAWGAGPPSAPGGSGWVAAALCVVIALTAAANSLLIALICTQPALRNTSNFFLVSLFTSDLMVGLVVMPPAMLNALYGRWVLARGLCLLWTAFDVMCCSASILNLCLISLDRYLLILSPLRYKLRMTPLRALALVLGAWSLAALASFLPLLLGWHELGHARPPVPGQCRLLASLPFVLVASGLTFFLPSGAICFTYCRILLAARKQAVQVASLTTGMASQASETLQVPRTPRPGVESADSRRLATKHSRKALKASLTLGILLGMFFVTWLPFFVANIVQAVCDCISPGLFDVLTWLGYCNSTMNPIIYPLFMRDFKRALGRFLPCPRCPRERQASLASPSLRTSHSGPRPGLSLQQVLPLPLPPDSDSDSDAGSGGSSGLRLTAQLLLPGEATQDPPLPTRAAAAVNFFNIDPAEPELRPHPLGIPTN
# Sequence of 5-hydroxytryptamine receptor 2A (P28223 whole entry): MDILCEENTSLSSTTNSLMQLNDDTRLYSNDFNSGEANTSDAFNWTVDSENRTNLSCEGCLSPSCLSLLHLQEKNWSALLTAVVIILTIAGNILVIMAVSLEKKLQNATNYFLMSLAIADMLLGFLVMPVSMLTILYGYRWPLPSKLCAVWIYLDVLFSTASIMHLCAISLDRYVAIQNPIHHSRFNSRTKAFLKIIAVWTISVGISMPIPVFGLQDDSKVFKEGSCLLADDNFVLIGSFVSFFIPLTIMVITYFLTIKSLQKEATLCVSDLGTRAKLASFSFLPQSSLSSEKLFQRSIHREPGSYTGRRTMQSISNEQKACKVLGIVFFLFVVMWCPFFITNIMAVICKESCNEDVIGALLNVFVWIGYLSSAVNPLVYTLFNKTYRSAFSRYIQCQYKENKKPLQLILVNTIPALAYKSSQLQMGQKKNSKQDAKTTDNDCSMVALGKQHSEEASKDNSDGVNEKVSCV
# Sequence of 5-hydroxytryptamine receptor 7 (P34969 whole entry): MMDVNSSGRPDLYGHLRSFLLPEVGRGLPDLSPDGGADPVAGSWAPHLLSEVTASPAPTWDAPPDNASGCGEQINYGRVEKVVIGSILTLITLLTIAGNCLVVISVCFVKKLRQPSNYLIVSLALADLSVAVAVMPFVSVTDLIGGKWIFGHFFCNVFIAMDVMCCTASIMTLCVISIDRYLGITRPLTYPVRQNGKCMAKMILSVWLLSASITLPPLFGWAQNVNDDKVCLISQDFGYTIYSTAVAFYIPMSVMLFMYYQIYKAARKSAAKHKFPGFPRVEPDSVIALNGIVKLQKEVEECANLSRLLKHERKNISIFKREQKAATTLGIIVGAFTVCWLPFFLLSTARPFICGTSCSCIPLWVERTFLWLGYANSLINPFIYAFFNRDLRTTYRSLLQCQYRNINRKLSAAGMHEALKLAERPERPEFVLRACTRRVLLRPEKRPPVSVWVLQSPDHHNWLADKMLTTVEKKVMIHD
Compound,Ki [1],Ki [2],Ki [3],Ki [4],also measured
O=S(=O)(c1cccc2ncccc12)N1CCC[C@H]1CCN1CCN(c2cccc3sccc23)CC1,36 nM,82 nM,13 nM,19 nM,–
O=S(=O)(c1cccc2ncccc12)N1CCC[C@H]1CCN1CCC(c2noc3cc(F)ccc23)CC1,12 nM,169 nM,147 nM,12 nM,–
O=S(=O)(c1cccc2ncccc12)N1CCC[C@H]1CCN1CCN(c2cccc3[nH]ccc23)CC1,244 nM,2310 nM,14 nM,165 nM,–
O=S(=O)(c1cccc2ncccc12)N1CCC[C@H]1CCN1CC=C(c2c[nH]c3ccc(Cl)cc23)CC1,1400 nM,77 nM,146 nM,65 nM,–
O=S(=O)(c1cccc2ncccc12)N1CCC[C@H]1CCN1CCN(c2cccc3c2OCCO3)CC1,110 nM,2530 nM,6 nM,349 nM,–
O=S(=O)(c1cncc2ccccc12)N1CCC[C@@H]1CCN1CCN(c2cccc3[nH]ccc23)CC1,76 nM,766 nM,6 nM,4 nM,–
O=S(=O)(c1cncc2ccccc12)N1CCC[C@@H]1CCN1CC=C(c2c[nH]c3ccc(Cl)cc23)CC1,1900 nM,23 nM,147 nM,8 nM,–
O=S(=O)(c1cncc2ccccc12)N1CCC[C@H]1CCN1CC=C(c2c[nH]c3ccc(Cl)cc23)CC1,238 nM,60 nM,66 nM,97 nM,–
O=S(=O)(c1cccc2cnccc12)N1CCC[C@H]1CCN1CCN(c2noc3ccccc23)CC1,41 nM,92 nM,86 nM,10 nM,–
O=S(=O)(c1cccc2ncccc12)N1CCC[C@H]1CCN1CCN(c2noc3ccccc23)CC1,49 nM,291 nM,179 nM,7 nM,–
O=S(=O)(c1cncc2ccccc12)N1CCCCC[C@H]1CCN1CCN(c2cccc3sccc23)CC1,29 nM,190 nM,8 nM,24 nM,–
O=S(=O)(c1cccc2ncccc12)N1CC[C@@H]1CCN1CCN(c2nsc3ccccc23)CC1,30 nM,344 nM,54 nM,57 nM,–
O=S(=O)(c1ccnc2ccccc12)N1CCCC[C@@H]1CCN1CCN(c2nsc3ccccc23)CC1,35 nM,1260 nM,24 nM,69 nM,–
O=S(=O)(c1cccc2ncccc12)N1CCCC[C@@H]1CCN1CCN(c2cccc3sccc23)CC1,35 nM,337 nM,15 nM,22 nM,–
O=S(=O)(c1cccc2ncccc12)N1CC[C@@H]1CCN1CCN(c2cccc3sccc23)CC1,7 nM,130 nM,9 nM,45 nM,–
O=c1[nH]c2c(N3CCN(CC[C@@H]4CCCN4S(=O)(=O)c4cncc5ccccc45)CC3)cccc2o1,2040 nM,2990 nM,27 nM,672 nM,–
O=S(=O)(c1cccc2ncccc12)N1CCC[C@@H]1CCN1CC=C(c2c[nH]c3ccc(Cl)cc23)CC1,1150 nM,18 nM,91 nM,12 nM,–
O=S(=O)(c1cccc2ncccc12)N1CCC[C@@H]1CCN1CCN(c2cccc3c2OCCO3)CC1,296 nM,996 nM,5 nM,66 nM,–
O=S(=O)(c1cncc2ccccc12)N1CCC[C@H]1CCN1CCC(c2noc3cc(F)ccc23)CC1,6 nM,137 nM,111 nM,0.4 nM,–
O=S(=O)(c1cccc2ncccc12)N1CCCCC[C@H]1CCN1CCN(c2cccc3sccc23)CC1,51 nM,176 nM,12 nM,19 nM,–
O=S(=O)(c1cccc2ncccc12)N1CCC[C@@H]1CCN1CCN(c2cccc3[nH]ccc23)CC1,451 nM,641 nM,5 nM,14 nM,–

Compound,Ki [1],Ki [2],Ki [3],Ki [4],also measured
O=S(=O)(c1cccc2ncccc12)N1CCC[C@@H]1CCN1CCC(c2noc3cc(F)ccc23)CC1,5 nM,45 nM,120 nM,12 nM,–
O=S(=O)(c1cccc2ncccc12)N1CCCC[C@@H]1CCN1CCN(c2nsc3ccccc23)CC1,29 nM,949 nM,28 nM,52 nM,–
O=S(=O)(c1cccc2ncccc12)N1CCC[C@@H]1CCN1CCN(c2nsc3ccccc23)CC1,21 nM,38 nM,24 nM,–,–
O=S(=O)(c1cncc2ccccc12)N1CCC[C@H]1CCN1CCN(c2cccc3c2OCCO3)CC1,91 nM,1480 nM,6 nM,142 nM,–
O=c1[nH]c2c(N3CCN(CC[C@H]4CCCN4S(=O)(=O)c4cncc5ccccc45)CC3)cccc2o1,1970 nM,1810 nM,36 nM,1340 nM,–
O=S(=O)(c1cncc2ccccc12)N1CC[C@@H]1CCN1CCN(c2nsc3ccccc23)CC1,24 nM,348 nM,56 nM,51 nM,–
O=S(=O)(c1cncc2ccccc12)N1CCC[C@@H]1CCN1CCN(c2cccc3c2OCCO3)CC1,390 nM,1260 nM,7 nM,52 nM,–
O=c1[nH]c2c(N3CCN(CC[C@@H]4CCCN4S(=O)(=O)c4cccc5ncccc45)CC3)cccc2o1,2450 nM,3910 nM,23 nM,1120 nM,–
O=S(=O)(c1cncc2ccccc12)N1CC[C@@H]1CCN1CCN(c2cccc3sccc23)CC1,16 nM,104 nM,16 nM,31 nM,–
O=S(=O)(c1cccc2ncccc12)N1CCCCC[C@H]1CCN1CCN(c2nsc3ccccc23)CC1,30 nM,457 nM,48 nM,17 nM,–
O=S(=O)(c1cncc2ccccc12)N1CCC[C@H]1CCN1CCN(c2noc3ccccc23)CC1,33 nM,497 nM,96 nM,6 nM,–
O=S(=O)(c1ccnc2ccccc12)N1CCCCC[C@H]1CCN1CCN(c2nsc3ccccc23)CC1,26 nM,623 nM,50 nM,19 nM,–
O=S(=O)(c1cncc2ccccc12)N1CCC[C@H]1CCN1CCN(c2cccc3[nH]ccc23)CC1,82 nM,2060 nM,8 nM,75 nM,–
O=S(=O)(c1cccc2ncccc12)N1CCC[C@H]1CCN1CCN(c2nsc3ccccc23)CC1,16 nM,311 nM,25 nM,–,–
O=S(=O)(c1cccc2cnccc12)N1CCC[C@@H]1CCN1CCN(c2nsc3ccccc23)CC1,15 nM,40 nM,16 nM,1 nM,concentration at 0.25 h [5]: 450 nM; concentration at 0.5 h [6]: 389 nM; concentration at 1 h [7]: 79.2 nM; concentration at 0.25 h [8]: 114 nM; concentration at 0.5 h [9]: 81.9 nM; concentration at 1 h [10]: 35.5 nM; Kp at 0.25 h [11]: 0.28; Kp at 0.5 h [12]: 0.21; Kp at 1 h [13]: 0.45
O=S(=O)(c1cncc2ccccc12)N1CCCC[C@@H]1CCN1CCN(c2cccc3sccc23)CC1,64 nM,221 nM,12 nM,32 nM,–
O=S(=O)(c1cccc2cnccc12)N1CCC[C@@H]1CCN1CCN(c2cccc3sccc23)CC1,19 nM,9 nM,13 nM,3 nM,–
O=S(=O)(c1cccc2cnccc12)N1CCC[C@H]1CCN1CCN(c2nsc3ccccc23)CC1,18 nM,360 nM,37 nM,12 nM,concentration at 0.25 h [5]: 647 nM; concentration at 0.5 h [6]: 417 nM; concentration at 1 h [7]: 117 nM; concentration at 0.25 h [8]: 90.1 nM; concentration at 0.5 h [9]: 67.1 nM; concentration at 1 h [10]: 19.7 nM; Kp at 0.25 h [11]: 0.15; Kp at 0.5 h [12]: 0.19; Kp at 1 h [13]: 0.17
O=S(=O)(c1cccc2cnccc12)N1CCC[C@H]1CCN1CCN(c2cccc3sccc23)CC1,9 nM,72 nM,10 nM,23 nM,–
O=S(=O)(c1cccc2ncccc12)N1CCC[C@@H]1CCN1CCN(c2cccc3sccc23)CC1,56 nM,13 nM,15 nM,1 nM,–
